Source: the kinase profiling compilation of Christmann-Franck et al. (2016)
Where “and” joins values, the source holds several entries; their conditions need not be identical. Identical values can stand only once.

What was measured:
Experiment in all cases: radiometric filter-binding kinase assay, Kinase HotSpot
Settings in all cases: compound 0.5 µM; ATP 10 µM
[1] = molecular target: MYLK (human) (UniProt Q15746)
[2] = molecular target: PBK (human) (UniProt Q96KB5)
[3] = molecular target: TAOK2 (human) (UniProt Q9UL54)
[4] = molecular target: PRKX (human) (UniProt P51817)
[5] = molecular target: ADRBK2 (human) (UniProt P35626)
[6] = molecular target: NEK4 (human) (UniProt P51957)
[7] = molecular target: EPHA1 (human) (UniProt P21709)
[8] = molecular target: CAMK2A (human) (UniProt Q9UQM7)
[9] = molecular target: SYK (human) (UniProt P43405)
[10] = molecular target: LYN (human) (UniProt P07948)
[11] = molecular target: AKT3 (human) (UniProt Q9Y243)
Chain of AKT3 (human) (Q9Y243 whole entry, looked up): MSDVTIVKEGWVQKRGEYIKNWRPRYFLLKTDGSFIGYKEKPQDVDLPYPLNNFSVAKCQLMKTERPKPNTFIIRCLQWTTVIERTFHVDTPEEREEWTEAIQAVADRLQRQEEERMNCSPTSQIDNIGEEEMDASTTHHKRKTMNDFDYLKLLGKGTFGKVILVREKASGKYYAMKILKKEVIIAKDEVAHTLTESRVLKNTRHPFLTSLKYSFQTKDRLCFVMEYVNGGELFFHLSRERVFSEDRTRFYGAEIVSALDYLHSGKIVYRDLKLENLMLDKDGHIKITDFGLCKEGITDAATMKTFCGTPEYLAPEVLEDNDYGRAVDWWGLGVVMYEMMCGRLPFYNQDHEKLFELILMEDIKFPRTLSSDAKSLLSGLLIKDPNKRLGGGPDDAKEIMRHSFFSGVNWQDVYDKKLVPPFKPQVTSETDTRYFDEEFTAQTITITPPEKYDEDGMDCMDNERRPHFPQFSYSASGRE

[12] = molecular target: TNK2 (human) (UniProt Q07912)
Chain of TNK2 (human) (Q07912 whole entry, looked up): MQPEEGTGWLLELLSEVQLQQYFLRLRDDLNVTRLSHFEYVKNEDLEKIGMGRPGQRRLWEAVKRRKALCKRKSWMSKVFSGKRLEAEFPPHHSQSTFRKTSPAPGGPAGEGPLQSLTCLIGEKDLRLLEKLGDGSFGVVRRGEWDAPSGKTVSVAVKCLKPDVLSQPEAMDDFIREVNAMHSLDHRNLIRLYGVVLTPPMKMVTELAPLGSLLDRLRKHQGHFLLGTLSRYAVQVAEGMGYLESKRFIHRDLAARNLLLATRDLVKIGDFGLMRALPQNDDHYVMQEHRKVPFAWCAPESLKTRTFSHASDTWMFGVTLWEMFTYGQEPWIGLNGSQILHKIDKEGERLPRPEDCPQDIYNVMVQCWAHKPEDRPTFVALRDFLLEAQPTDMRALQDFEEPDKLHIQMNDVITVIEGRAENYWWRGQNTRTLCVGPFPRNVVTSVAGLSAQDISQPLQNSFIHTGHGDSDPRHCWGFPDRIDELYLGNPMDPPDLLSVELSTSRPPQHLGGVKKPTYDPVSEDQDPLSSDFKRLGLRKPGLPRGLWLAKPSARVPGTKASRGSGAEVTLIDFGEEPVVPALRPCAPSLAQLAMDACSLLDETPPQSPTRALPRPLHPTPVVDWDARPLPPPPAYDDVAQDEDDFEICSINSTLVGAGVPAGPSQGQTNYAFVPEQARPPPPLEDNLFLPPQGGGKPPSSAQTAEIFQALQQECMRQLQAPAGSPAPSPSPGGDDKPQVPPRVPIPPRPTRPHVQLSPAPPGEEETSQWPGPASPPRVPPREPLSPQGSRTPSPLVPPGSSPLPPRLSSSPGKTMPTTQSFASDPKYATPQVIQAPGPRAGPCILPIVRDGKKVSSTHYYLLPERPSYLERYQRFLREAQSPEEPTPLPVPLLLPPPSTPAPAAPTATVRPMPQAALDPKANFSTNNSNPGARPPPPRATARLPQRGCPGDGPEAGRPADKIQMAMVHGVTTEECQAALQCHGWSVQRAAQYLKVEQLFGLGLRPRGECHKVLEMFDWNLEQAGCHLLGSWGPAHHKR

[13] = molecular target: CAMK1 (human) (UniProt Q14012)
Chain of CAMK1 (human) (Q14012 whole entry, looked up): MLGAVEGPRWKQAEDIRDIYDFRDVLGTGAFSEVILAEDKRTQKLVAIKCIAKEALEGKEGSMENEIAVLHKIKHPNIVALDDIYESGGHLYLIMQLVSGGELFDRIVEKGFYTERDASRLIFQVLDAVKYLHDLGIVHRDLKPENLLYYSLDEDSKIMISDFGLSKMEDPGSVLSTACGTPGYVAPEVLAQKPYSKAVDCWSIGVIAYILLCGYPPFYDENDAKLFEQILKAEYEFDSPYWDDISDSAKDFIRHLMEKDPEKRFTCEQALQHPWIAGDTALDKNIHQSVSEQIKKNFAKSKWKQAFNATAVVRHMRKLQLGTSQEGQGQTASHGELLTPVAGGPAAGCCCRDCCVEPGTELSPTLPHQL

[14] = molecular target: LTK (human) (UniProt P29376)
[15] = molecular target: DSTYK (human) (UniProt Q6XUX3)
[16] = molecular target: PAK1 (human) (UniProt Q13153)
[17] = molecular target: CSNK1E (human) (UniProt P49674)
[18] = molecular target: PAK3 (human) (UniProt O75914)
Chain of PAK3 (human) (O75914 whole entry, looked up): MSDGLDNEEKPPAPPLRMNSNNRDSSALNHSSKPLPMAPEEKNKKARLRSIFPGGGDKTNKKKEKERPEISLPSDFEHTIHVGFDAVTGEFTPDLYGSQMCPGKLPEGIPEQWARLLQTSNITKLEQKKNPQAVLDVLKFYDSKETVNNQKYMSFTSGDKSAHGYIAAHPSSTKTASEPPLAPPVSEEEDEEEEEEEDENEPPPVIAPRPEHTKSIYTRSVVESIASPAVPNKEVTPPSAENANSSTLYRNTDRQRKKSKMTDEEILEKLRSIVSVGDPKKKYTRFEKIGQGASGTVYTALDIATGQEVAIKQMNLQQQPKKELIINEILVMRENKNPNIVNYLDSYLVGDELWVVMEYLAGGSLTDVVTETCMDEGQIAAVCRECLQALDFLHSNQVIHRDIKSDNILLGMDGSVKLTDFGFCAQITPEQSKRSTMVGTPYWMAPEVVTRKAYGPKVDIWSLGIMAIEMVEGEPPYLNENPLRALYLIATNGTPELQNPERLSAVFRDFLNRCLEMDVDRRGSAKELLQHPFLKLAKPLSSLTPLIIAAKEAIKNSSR

[19] = molecular target: STK24 (human) (UniProt Q9Y6E0)
Chain of STK24 (human) (Q9Y6E0 whole entry, looked up): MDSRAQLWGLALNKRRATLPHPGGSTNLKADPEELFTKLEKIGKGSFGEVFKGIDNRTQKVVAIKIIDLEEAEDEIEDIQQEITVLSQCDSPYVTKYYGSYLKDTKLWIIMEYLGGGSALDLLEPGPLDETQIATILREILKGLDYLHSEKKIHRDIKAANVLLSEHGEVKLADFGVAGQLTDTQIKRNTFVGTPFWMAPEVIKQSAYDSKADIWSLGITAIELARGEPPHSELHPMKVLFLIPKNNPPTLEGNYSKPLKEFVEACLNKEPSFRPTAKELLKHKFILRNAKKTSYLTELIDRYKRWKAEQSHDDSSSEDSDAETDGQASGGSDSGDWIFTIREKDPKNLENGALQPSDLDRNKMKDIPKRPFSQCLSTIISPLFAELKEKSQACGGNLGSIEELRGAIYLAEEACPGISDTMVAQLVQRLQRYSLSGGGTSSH

[20] = molecular target: MAPKAPK2 (human) (UniProt P49137)
[21] = molecular target: DCLK2 (human) (UniProt Q8N568)
[22] = molecular target: PRKD3 (human) (UniProt O94806)
[23] = molecular target: MUSK (human) (UniProt O15146)
[24] = molecular target: IRAK4 (human) (UniProt Q9NWZ3)
[25] = molecular target: MELK (human) (UniProt Q14680)
Chain of MELK (human) (Q14680 whole entry, looked up): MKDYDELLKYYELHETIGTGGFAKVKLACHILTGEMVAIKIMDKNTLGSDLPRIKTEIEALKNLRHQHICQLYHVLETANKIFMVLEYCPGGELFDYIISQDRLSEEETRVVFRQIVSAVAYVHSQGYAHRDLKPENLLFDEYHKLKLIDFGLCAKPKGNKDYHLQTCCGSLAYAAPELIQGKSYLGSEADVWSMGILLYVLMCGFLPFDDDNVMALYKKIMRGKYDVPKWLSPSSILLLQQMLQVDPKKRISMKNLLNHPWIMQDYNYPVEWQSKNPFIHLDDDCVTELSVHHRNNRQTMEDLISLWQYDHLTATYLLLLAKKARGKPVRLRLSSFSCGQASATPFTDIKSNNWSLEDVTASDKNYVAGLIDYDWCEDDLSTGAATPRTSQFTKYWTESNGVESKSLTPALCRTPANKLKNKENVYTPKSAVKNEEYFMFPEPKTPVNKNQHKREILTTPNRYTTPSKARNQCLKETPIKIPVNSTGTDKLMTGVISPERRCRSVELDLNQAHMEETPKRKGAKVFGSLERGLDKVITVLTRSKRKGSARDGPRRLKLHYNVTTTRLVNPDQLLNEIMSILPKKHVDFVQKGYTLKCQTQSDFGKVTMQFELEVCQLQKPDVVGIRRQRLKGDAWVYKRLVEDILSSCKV

[26] = molecular target: MAP3K3 (human) (UniProt Q99759)
Chain of MAP3K3 (human) (Q99759 whole entry, looked up): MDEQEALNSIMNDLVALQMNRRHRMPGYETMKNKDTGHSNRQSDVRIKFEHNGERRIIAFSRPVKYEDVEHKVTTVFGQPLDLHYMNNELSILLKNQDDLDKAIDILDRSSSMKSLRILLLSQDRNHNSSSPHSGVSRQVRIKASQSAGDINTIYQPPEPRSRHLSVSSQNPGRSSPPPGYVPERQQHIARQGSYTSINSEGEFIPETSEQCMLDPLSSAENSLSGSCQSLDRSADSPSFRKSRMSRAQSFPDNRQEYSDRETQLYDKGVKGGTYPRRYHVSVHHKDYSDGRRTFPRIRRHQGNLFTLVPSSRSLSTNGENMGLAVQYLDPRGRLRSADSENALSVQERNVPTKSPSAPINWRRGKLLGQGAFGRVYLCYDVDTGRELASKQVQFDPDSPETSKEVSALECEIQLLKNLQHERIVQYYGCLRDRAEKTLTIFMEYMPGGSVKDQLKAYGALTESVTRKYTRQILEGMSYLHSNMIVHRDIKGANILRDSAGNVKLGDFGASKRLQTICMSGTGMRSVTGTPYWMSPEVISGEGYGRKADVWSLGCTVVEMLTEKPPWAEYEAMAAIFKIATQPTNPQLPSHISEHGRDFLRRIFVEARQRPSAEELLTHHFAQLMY

[27] = molecular target: MAPK9 (human) (UniProt P45984)
[28] = molecular target: STK33 (human) (UniProt Q9BYT3)
[29] = molecular target: CDK6 CCND1 (human) (UniProt Q00534+P24385)
[30] = molecular target: MAP3K7 TAB1 (human) (UniProt O43318+Q15750)
[31] = molecular target: NEK3 (human) (UniProt P51956)
[32] = molecular target: MAPK10 (human) (UniProt P53779)
[33] = molecular target: SRC (human) (UniProt P12931)
[34] = molecular target: INSR (human) (UniProt P06213)
[35] = test system: SGK1 (human), O00141 [S422D]
[36] = molecular target: RET (human) (UniProt P07949)
[37] = molecular target: TGFBR2 (human) (UniProt P37173)
Chain of TGFBR2 (human) (P37173 whole entry, looked up): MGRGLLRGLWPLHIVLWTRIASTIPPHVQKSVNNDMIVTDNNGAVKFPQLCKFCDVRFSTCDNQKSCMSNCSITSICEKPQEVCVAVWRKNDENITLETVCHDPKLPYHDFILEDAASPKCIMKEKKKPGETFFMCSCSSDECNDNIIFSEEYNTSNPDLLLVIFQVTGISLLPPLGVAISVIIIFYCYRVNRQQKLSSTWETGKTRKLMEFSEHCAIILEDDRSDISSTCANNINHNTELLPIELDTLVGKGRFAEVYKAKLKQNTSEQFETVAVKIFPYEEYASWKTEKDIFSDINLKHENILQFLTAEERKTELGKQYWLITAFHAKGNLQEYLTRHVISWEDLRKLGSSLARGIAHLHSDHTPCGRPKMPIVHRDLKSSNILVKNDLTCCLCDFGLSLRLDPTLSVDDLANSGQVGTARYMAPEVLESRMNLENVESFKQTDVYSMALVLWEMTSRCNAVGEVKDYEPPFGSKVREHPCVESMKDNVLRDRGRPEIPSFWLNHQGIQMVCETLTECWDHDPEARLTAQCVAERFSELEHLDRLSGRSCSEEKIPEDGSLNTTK

[38] = molecular target: CLK2 (human) (UniProt P49760)
[39] = molecular target: GSG2 (human) (UniProt Q8TF76)
[40] = molecular target: TGFBR1 (human) (UniProt P36897)
[41] = molecular target: MAP4K2 (human) (UniProt Q12851)
[42] = molecular target: PAK4 (human) (UniProt O96013)

## COc1cc2ncnc(Nc3ccc(O)c(Br)c3)c2cc1OC
[1]
  residual activity: 84.6%
[2]
  residual activity: 101%
[3]
  residual activity: 95.8%
[4]
  residual activity: 89.2%
[5]
  residual activity: 103%
[6]
  residual activity: 93.1%
[7]
  residual activity: 80.4%
[8]
  residual activity: 98%
[9]
  residual activity: 86.7%
[10]
  residual activity: 40.3% and 60%
[11]
  residual activity: 101%
[12]
  residual activity: 10.5%
[13]
  residual activity: 103%
[14]
  residual activity: 5.44%
[15]
  residual activity: 106%
[16]
  residual activity: 94.1%
[17]
  residual activity: 85.1%
[18]
  residual activity: 94.2%
[19]
  residual activity: 91.7%
[20]
  residual activity: 97.7%
[21]
  residual activity: 101%
[22]
  residual activity: 72.8%
[23]
  residual activity: 78.2%
[24]
  residual activity: 91.1%
[25]
  residual activity: 83.4%
[26]
  residual activity: 82%
[27]
  residual activity: 88.4%
[28]
  residual activity: 80.7%
[29]
  residual activity: 95.4%
[30]
  residual activity: 100%
[31]
  residual activity: 88.4%
[32]
  residual activity: 89%
[33]
  residual activity: 77.5%
[34]
  residual activity: 92.4%
[35]
  residual activity: 95.7%
[36]
  residual activity: 21.4%
[37]
  residual activity: 105%
[38]
  residual activity: 96.7%
[39]
  residual activity: 84.8%
[40]
  residual activity: 97.4%
[41]
  residual activity: 101%
[42]
  residual activity: 95.7%

## Nc1ncnc2c1cnn2-c1ccccc1
[1]
  residual activity: 99.7%
[2]
  residual activity: 92.4%
[3]
  residual activity: 93%
[4]
  residual activity: 95.3%
[5]
  residual activity: 105%
[6]
  residual activity: 98.7%
[7]
  residual activity: 92.4%
[8]
  residual activity: 105%
[9]
  residual activity: 96%
[10]
  residual activity: 102% and 99.7%
[11]
  residual activity: 102%
[12]
  residual activity: 90.3%
[13]
  residual activity: 97.5%
[14]
  residual activity: 96.8%
[15]
  residual activity: 94.5%
[16]
  residual activity: 94.2%
[17]
  residual activity: 81.5%
[18]
  residual activity: 98.8%
[19]
  residual activity: 96.3%
[20]
  residual activity: 98.6%
[21]
  residual activity: 101%
[22]
  residual activity: 87.3%
[23]
  residual activity: 88%
[24]
  residual activity: 89.4%
[25]
  residual activity: 92.6%
[26]
  residual activity: 95.5%
[27]
  residual activity: 88.2%
[28]
  residual activity: 96.1%
[29]
  residual activity: 94.7%
[30]
  residual activity: 98.9%
[31]
  residual activity: 93.5%
[32]
  residual activity: 100%
[33]
  residual activity: 96.9%
[34]
  residual activity: 103%
[35]
  residual activity: 90.9%
[36]
  residual activity: 98.2%
[37]
  residual activity: 105%
[38]
  residual activity: 91.4%
[39]
  residual activity: 94.8%
[40]
  residual activity: 99.6%
[41]
  residual activity: 94.9%
[42]
  residual activity: 86.5%

## COc1cc2c(N3CCN(C(=O)Nc4ccc(OC(C)C)cc4)CC3)ncnc2cc1OCCCN1CCCCC1
[1]
  residual activity: 96.6%
[2]
  residual activity: 98%
[3]
  residual activity: 102%
[4]
  residual activity: 108%
[5]
  residual activity: 97.6%
[6]
  residual activity: 90.3%
[7]
  residual activity: 96.1%
[8]
  residual activity: 101%
[9]
  residual activity: 102%
[10]
  residual activity: 103% and 95.6%
[11]
  residual activity: 106%
[12]
  residual activity: 92.7%
[13]
  residual activity: 101%
[14]
  residual activity: 101%
[15]
  residual activity: 92.7%
[16]
  residual activity: 107%
[17]
  residual activity: 99.1%
[18]
  residual activity: 105%
[19]
  residual activity: 102%
[20]
  residual activity: 100%
[21]
  residual activity: 103%
[22]
  residual activity: 97.3%
[23]
  residual activity: 99.6%
[24]
  residual activity: 96%
[25]
  residual activity: 87.9%
[26]
  residual activity: 106%
[27]
  residual activity: 103%
[28]
  residual activity: 91.1%
[29]
  residual activity: 94.6%
[30]
  residual activity: 91.8%
[31]
  residual activity: 103%
[32]
  residual activity: 94.6%
[33]
  residual activity: 102%
[34]
  residual activity: 99.3%
[35]
  residual activity: 123%
[36]
  residual activity: 91.5%
[37]
  residual activity: 102%
[38]
  residual activity: 80.7%
[39]
  residual activity: 99.5%
[40]
  residual activity: 102%
[41]
  residual activity: 104%
[42]
  residual activity: 103%

## N#Cc1c(NC(=O)c2cccc3ccccc23)sc2c1CCCC2
[1]
  residual activity: 98.7%
[2]
  residual activity: 116%
[3]
  residual activity: 99.8%
[4]
  residual activity: 103%
[5]
  residual activity: 106%
[6]
  residual activity: 94.6%
[7]
  residual activity: 103%
[8]
  residual activity: 104%
[9]
  residual activity: 97.6%
[10]
  residual activity: 104% and 87%
[11]
  residual activity: 99.6%
[12]
  residual activity: 95.4%
[13]
  residual activity: 108%
[14]
  residual activity: 102%
[15]
  residual activity: 100%
[16]
  residual activity: 97.4%
[17]
  residual activity: 102%
[18]
  residual activity: 105%
[19]
  residual activity: 90.3%
[20]
  residual activity: 103%
[21]
  residual activity: 96.5%
[22]
  residual activity: 97.7%
[23]
  residual activity: 94.8%
[24]
  residual activity: 92.9%
[25]
  residual activity: 83.3%
[26]
  residual activity: 99.8%
[27]
  residual activity: 33.9%
[28]
  residual activity: 93%
[29]
  residual activity: 94%
[30]
  residual activity: 99.7%
[31]
  residual activity: 93.2%
[32]
  residual activity: 112%
[33]
  residual activity: 93.5%
[34]
  residual activity: 98.2%
[35]
  residual activity: 108%
[36]
  residual activity: 105%
[37]
  residual activity: 104%
[38]
  residual activity: 101%
[39]
  residual activity: 99%
[40]
  residual activity: 101%
[41]
  residual activity: 86.1%
[42]
  residual activity: 95.2%
